Measurements taken from US7223791B2, “Function regulator for retinoid relative receptor” (Takeda Pharmaceutical Company Limited, priority 2001, dated 2007).

melting point | SMILES
151 to 152 °C | O=Cc1cccc(-c2cc(-c3ccc(C(F)(F)F)cc3)no2)c1 [Example 82, 3-[3-(4-trifluoromethylphenyl)-5-isoxazolyl]benzaldehyde]
239 to 240 °C | O=C(O)c1ccc(-c2nnc(-c3ccccc3[N+](=O)[O-])o2)cc1 [Example 52, 4-[5-(2-nitrophenyl)-1,3,4-oxadiazol-2-yl]benzoic acid]
129 to 130 °C | O=Cc1cccc(-c2nnc(-c3ccc(C(F)(F)F)cc3)o2)c1 [Example 80, 3-[5-(4-trifluoromethylphenyl)-1,3,4-oxadiazol-2-yl]benzaldehyde]
173 to 174 °C | COC(=O)c1ccc(-c2nnc(-c3ccc(C(F)(F)F)cc3)o2)c([N+](=O)[O-])c1 [Example 67, methyl 3-nitro-4-[5-(4-trifluoromethylphenyl)-1,3,4-oxadiazol-2-yl]benzoate]
> 300 °C | Nc1cc(C(=O)O)ccc1-c1nnc(-c2ccc(C(F)(F)F)cc2)o1 [Example 71, 3-amino-4-[5-(4-trifluoromethylphenyl)-1,3,4-oxadiazol-2-yl]benzoic acid]
237 to 238 °C | COC(=O)c1ccc(-c2nnc(-c3ccc(C(F)(F)F)cc3)o2)c(N)c1 [Example 76, methyl 3-amino-4-[5-(4-trifluoromethylphenyl)-1,3,4-oxadiazol-2-yl]benzoate]
> 300 °C | Nc1cc(C(=O)O)ccc1-c1nc(-c2ccc(C(F)(F)F)cc2)no1 [Example 66, 3-amino-4-[3-(4-trifluoromethylphenyl)-1,2,4-oxadiazol-5-yl]benzoic acid]
254 to 255 °C | O=C(O)c1ccc(-c2nnc(-c3ccc(C(F)(F)F)cc3)o2)c([N+](=O)[O-])c1 [Example 69, 3-nitro-4-[5-(4-trifluoromethylphenyl)-1,3,4-oxadiazol-2-yl]benzoic acid]
233 to 235 °C | CC(C)(C)c1ccc(-c2nnc(-c3ccc(C(=O)O)cc3[N+](=O)[O-])o2)cc1 [Example 70, 4-[5-(4-t-butylphenyl)-1,3,4-oxadiazol-2-yl]-3-nitrobenzoic acid]
263 to 264 °C | NC(=O)c1ccc(-c2ccc(-c3ccc(C(F)(F)F)cc3)o2)cc1 [Example 73, 4-[5-(4-trifluoromethylphenyl)-2-furyl]benzamide]
257 to 258 °C | O=C(O)c1ccc(-c2nc(-c3ccc(Cl)cc3)no2)c([N+](=O)[O-])c1 [Example 62, 4-[3-(4-chlorophenyl)-1,2,4-oxadiazol-5-yl]-3-nitrobenzoic acid]
284 to 286 °C | CC(C)(C)c1ccc(-c2nnc(-c3ccc(C(=O)O)cc3)o2)cc1 [Example 50, 4-[5-(4-t-butylphenyl)-1,3,4-oxadiazol-2-yl]benzoic acid]
195 to 196 °C | COC(=O)c1ccc(-c2nc(-c3ccc(C(C)(C)C)cc3)no2)c(N)c1 [Example 74, methyl 3-amino-4-[3-(4-t-butylphenyl)-1,2,4-oxadiazol-5-yl]benzoate]
227 to 228 °C | COC(=O)c1ccc(-c2nc(-c3ccc(Cl)cc3)no2)c(N)c1 [Example 75, methyl 3-amino-4-[3-(4-chlorophenyl)-1,2,4-oxadiazol-5-yl]benzoate]
> 300 °C | Nc1ccccc1-c1nnc(-c2ccc(C(=O)O)cc2)o1 [Example 55, 4-[5-(2-aminophenyl)-1,3,4-oxadiazol-2-yl]benzoic acid]
> 300 °C | O=C(O)c1ccc(-c2nnc(-c3ccccc3)o2)cc1 [Example 48, 4-[5-phenyl-1,3,4-oxadiazol-2-yl]benzoic acid]
266 to 268 °C | CC(C)(C)c1ccc(-c2nnc(-c3ccc(C(=O)O)cc3N)o2)cc1 [Example 72, 3-amino-4-[5-(4-t-butylphenyl)-1,3,4-oxadiazol-2-yl]benzoic acid]
142 to 143 °C | COC(=O)c1ccc(-c2nnc(-c3ccc(C(C)(C)C)cc3)o2)c([N+](=O)[O-])c1 [Example 68, methyl 4-[5-(4-t-butylphenyl)-1,3,4-oxadiazol-2-yl]-3-nitrobenzoate]
188 to 189 °C | COC(=O)c1ccc(-c2nc(-c3ccc(C(F)(F)F)cc3)no2)c(NC(=O)C(F)(F)F)c1 [Example 65, methyl 3-trifluoroacetylamino-4-[3-(4-trifluoromethylphenyl)-1,2,4-oxadiazol-5-yl]benzoate]
292 to 293 °C | O=C(O)c1ccc(-c2nc(-c3cccc(Oc4ccccc4)c3)no2)cc1 [Example 79, 4-[3-(3-phenoxyphenyl)-1,2,4-oxadiazol-5-yl]benzoic acid]
233 to 234 °C | O=C(O)c1ccc(-c2nc(-c3ccc(C(F)(F)F)cc3)no2)c([N+](=O)[O-])c1 [Example 63, 3-nitro-4-[3-(4-trifluoromethylphenyl)-1,2,4-oxadiazol-5-yl]benzoic acid]
189 to 190 °C | COC(=O)c1ccc(-c2nc(-c3ccc(Cl)cc3)no2)c([N+](=O)[O-])c1 [Example 60, methyl 4-[3-(4-chlorophenyl)-1,2,4-oxadiazol-5-yl]-3-nitrobenzoate]
239 to 240 °C | O=C(O)c1cccc(-c2nnc(-c3ccc(C(F)(F)F)cc3)o2)c1 [Example 51, 3-[5-(4-trifluoromethylphenyl)-1,3,4-oxadiazol-2-yl]benzoic acid]
> 300 °C | O=C(O)c1ccc(-c2nnc(-c3ccc(C(F)(F)F)cc3)o2)cc1 [Example 49, 4-[5-(4-trifluoromethylphenyl)-1,3,4-oxadiazol-2-yl]benzoic acid]
189 to 190 °C | O=Cc1ccc(-c2nnc(-c3ccccc3[N+](=O)[O-])o2)cc1 [Example 81, 4-[5-(2-nitrophenyl)-1,3,4-oxadiazol-2-yl]benzaldehyde]

The remaining lines, values behind:

SMILES | melting point
O=C(O)c1ccc(-c2nc(-c3ccc(Oc4ccccc4)cc3)no2)cc1 [Example 43, 4-[3-(4-phenoxyphenyl)-1,2,4-oxadiazol-5-yl]benzoic acid] | 278 to 279 °C
COC(=O)c1ccc(-c2nnc(-c3ccc(C(C)(C)C)cc3)o2)cc1 [Example 47, methyl 4-[5-(4-t-butylphenyl)-1,3,4-oxadiazol-2-yl]benzoate] | 210 to 211 °C
Cn1nc(-c2ccc(C(=O)O)cc2)nc1-c1ccccc1 [Example 39, 4-(1-methyl-5-phenyl-1H-1,2,4-triazol-3-yl)benzoic acid] | 243 to 244 °C
COC(=O)c1cccc(-c2cc(-c3ccc(C(F)(F)F)cc3)on2)c1 [Example 31, methyl 3-[5-(4-trifluoromethylphenyl)-3-isoxazolyl]benzoate] | 139 to 140 °C
COC(=O)c1ccc(-c2cc(-c3ccc(C(F)(F)F)cc3)on2)cc1 [Example 32, methyl 4-[5-(4-trifluoromethylphenyl)-3-isoxazolyl]benzoate] | 183 to 184 °C
CCOC(=O)c1ccc(-c2ccc(-c3ccc(C(F)(F)F)cc3)n2C)cc1 [Example 3, ethyl 4-[1-methyl-5-(4-trifluoromethylphenyl)-2-pyrrolyl]benzoate] | 150 to 151 °C
COC(=O)c1ccc(-c2cc(-c3ccccc3)on2)cc1 [Example 21, methyl 4-(5-phenyl-3-isoxazolyl)benzoate] | 201 to 202 °C
O=C(O)c1ccccc1-c1ccc(-c2ccc(C(F)(F)F)cc2)o1 [Example 8, 2-[5-(4-trifluoromethylphenyl)-2-furyl]benzoic acid] | 182 to 183 °C
COC(=O)c1ccc(-c2cc(-c3ccccc3)no2)cc1 [Example 17, methyl 4-(3-phenyl-5-isoxazolyl)benzoate] | 205 to 206 °C
COC(=O)c1ccc(-c2nc(-c3ccc(C(F)(F)F)cc3)no2)cc1 [Example 40, methyl 4-[3-(4-trifluoromethylphenyl)-1,2,4-oxadiazol-5-yl]benzoate] | 177 to 178 °C
COC(=O)c1ccc(-c2nc(-c3ccccc3)n(C)n2)cc1 [Example 37, methyl 4-(1-methyl-5-phenyl-1H-1,2,4-triazol-3-yl)benzoate] | 167 to 168 °C
COC(=O)c1ccc(-c2nc(-c3ccc(Oc4ccccc4)cc3)no2)cc1 [Example 41, methyl 4-[3-(4-phenoxyphenyl)-1,2,4-oxadiazol-5-yl]benzoate] | 112 to 113 °C
O=C(O)c1ccc(-c2nc(-c3ccccc3)ccc2Cl)cc1 [Example 2, 4-(3-chloro-6-phenyl-2-pyridyl)benzoic acid] | 254 to 255 °C
COC(=O)c1cccc(-c2cc(-c3ccc(Cl)cc3)on2)c1 [Example 22, methyl 3-[5-(4-chlorophenyl)-3-isoxazolyl)benzoate] | 157 to 158 °C
O=C(O)c1ccc(-c2n[nH]c(-c3ccccc3)n2)cc1 [Example 38, 4-(5-phenyl-1H-1,2,4-triazol-3-yl)benzoic acid] | > 300 °C
O=C(OCc1ccccc1)c1cc(-c2ccc(-c3ccc(C(F)(F)F)cc3)o2)ccc1OCc1ccccc1 [Example 11, benzyl 2-benzyloxy-5-[5-(4-trifluoromethylphenyl)-2-furyl]benzoate] | 97 to 98 °C
CCOC(=O)c1cccc(-c2ccc(-c3ccc(C(F)(F)F)cc3)o2)c1 [Example 5, ethyl 3-[5-(4-trifluoromethylphenyl)-2-furyl]benzoate] | 93 to 94 °C
O=C(O)c1ccc(-c2cc(-c3ccccc3)no2)cc1 [Example 24, 4-(3-phenyl-5-isoxazolyl)benzoic acid] | > 300 °C
O=C(O)c1ccc(-c2nc(-c3ccc(C(F)(F)F)cc3)no2)cc1 [Example 42, 4-[3-(4-trifluoromethylphenyl)-1,2,4-oxadiazol-5-yl]benzoic acid] | 293 to 294 °C
CCOC(=O)c1ccc(-c2ccc(-c3ccc(C(F)(F)F)cc3)s2)cc1 [Example 14, ethyl 4-[5-(4-trifluoromethylphenyl)-2-thienyl]benzoate] | 203 to 204 °C
COC(=O)c1ccc(-c2cc(-c3ccc(Cl)cc3)on2)cc1 [Example 23, methyl 4-[5-(4-chlorophenyl)-3-isoxazolyl]benzoate] | 225 to 226 °C
O=C(O)c1cc(-c2ccc(-c3ccc(C(F)(F)F)cc3)o2)ccc1O [Example 12, 5-[5-(4-trifluoromethylphenyl)-2-furyl]salicylic acid] | 272 to 273 °C
